From US20150079000A1, “Labelled Quinoxaline Derivatives as Multimodal Radiopharmaceuticals and Their Precursors” (INSTITUT NATIONAL DE LA SANTET DE LA RECHERCHE MEDICALE, priority 2012, published 2015)

Experiment: Metabolism of compound [125I](1)
Assay type: in vivo, mice
Method: 24 primary melanoma bearing mice were intravenously injected with 2.2 MBq of [^1251](1) and sacrificed 1 h, 3 h, 6 h, 24 h, 72 h and 10 days after tracer injection. To determine the metabolic stability of [^1251](1), blood, tumour, eyes, liver, kidney and urine samples were collected at each time point […]. Faeces were collected between 0-24 h and 24-48 h. Blood was immediately diluted in 5 mL of methanol/NH4OH 99.8:0.2 and centrifuged for 5 min at 3,000 rpm. Tumour, eyes, liver, kidneys and faeces were suspended in 5 mL of methanol/NH4OH 99.8:0.2, homogenized using GentleMACS™ dissociator (Miltenyi Biotec, Bergisch Gladbach, Germany) and centrifuged for 5 min at 3,000 rpm (repeated 2 times). Urines were analysed without any treatment. The extraction efficiency was determined by measuring the radioactivity of supernatants and precipitates. Supernatants were passed through a 0.22 μm Millipore filter and then concentrated to a volume between 200 and 500 μL before injection (duplicate) onto the analytical HPLC(C18 column; solvent A: H2O (0.2% NH4OH); solvent B: MeOH (0.2% NH4OH); Gradient elution: 0-5 min: 90 to 70% of A (Q=0.5 mL·min^−1); 5-30 min: 70 to 20% of A (Q=0.9 mL·min^−1); 30-32 min: 10% of A (Q=0.9 mL·min^−1)).

[1] = Feces, (grid: 3 h; faeces collected 24-48 h)
[2] = Feces, first value column (grid: 1 h; faeces collected 0-24 h)
[3] = Urine, 1 h after [125I](1) injection
[4] = Urine, 3 h after [125I](1) injection
[5] = Urine, 6 h after [125I](1) injection
[6] = Urine, 24 h after [125I](1) injection
[7] = Urine, 72 h after [125I](1) injection
[8] = Blood, 1 h after [125I](1) injection
[9] = Blood, 3 h after [125I](1) injection
[10] = Blood, 6 h after [125I](1) injection
[11] = Kidney, 1 h after [125I](1) injection
[12] = Kidney, 3 h after [125I](1) injection
[13] = Kidney, 6 h after [125I](1) injection
[14] = Liver, 1 h after [125I](1) injection
[15] = Liver, 3 h after [125I](1) injection
[16] = Liver, 6 h after [125I](1) injection
[17] = Liver, 24 h after [125I](1) injection

% of radioactivity [1] [%]	% of radioactivity [2] [%]	% of radioactivity [3] [%]	% of radioactivity [4] [%]	% of radioactivity [5] [%]	% of radioactivity [6] [%]	% of radioactivity [7] [%]	% of radioactivity [8] [%]	% of radioactivity [9] [%]	% of radioactivity [10] [%]	% of radioactivity [11] [%]	% of radioactivity [12] [%]	% of radioactivity [13] [%]	% of radioactivity [14] [%]	% of radioactivity [15] [%]	% of radioactivity [16] [%]	% of radioactivity [17] [%]	Structure (SMILES)	also measured
3.5 ± 0.7	3.0 ± 0.0	30.3 ± 2.4	24.0 ± 0.0	21.0 ± 0.0	6.5 ± 0.7	0.0 ± 0.0	–	–	–	–	–	–	–	–	–	–	O=C(O)CNC(=O)c1cnc2cc([125I])ccc2n1 [Acid [^125I]II]	–
8.0 ± 1.4	7.5 ± 0.7	17.2 ± 3.1	20.0 ± 1.4	16.0 ± 1.4	3.5 ± 0.7	0.0 ± 0.0	21.5 ± 2.1	11.5 ± 0.7	11.0 ± 0.0	29.0 ± 1.4	34.2 ± 0.7	43.0 ± 1.4	–	–	–	–	O=C(O)c1cnc2cc([125I])ccc2n1 [Acid [^125I]I]	–
2.5 ± 0.7	6.5 ± 0.7	–	–	–	–	–	–	–	–	–	–	–	–	–	–	–	CCNCCNC(=O)c1cnc2cc([125I])ccc2n1 [Amine [^125I]II]	–
14.0 ± 0.0	16.0 ± 0.0	6.6 ± 0.6	13.0 ± 1.4	3.5 ± 4.9	0.0 ± 0.0	0.0 ± 0.0	–	–	–	18.5 ± 0.7	11.7 ± 0.7	0.0 ± 0.0	26.0 ± 0.0	45.5 ± 2.1	55.0 ± 2.8	70.5 ± 0.7	NCCNC(=O)c1cnc2cc([125I])ccc2n1 [Amine [^125I]I]	–
27.0 ± 1.4	8.0 ± 0.0	25.7 ± 3.2	30.5 ± 0.7	51.0 ± 4.2	85.0 ± 1.4	99.0 ± 0.0	76.5 ± 0.7	88.5 ± 0.7	85.5 ± 4.9	20.5 ± 0.7	37.2 ± 2.2	57.0 ± 1.4	20.0 ± 1.4	21.5 ± 4.9	29.5 ± 0.7	29.5 ± 0.7	[125IH] [[^125I]I^−]	% of radioactivity (Eyes, 1 h after [125I](1) injection): 9.5 ± 0.7%; % of radioactivity (Eyes, 3 h after [125I](1) injection): 5.5 ± 2.1%; % of radioactivity (Eyes, 6 h after [125I](1) injection): 4.0 ± 5.7%; % of radioactivity (Eyes, 24 h after [125I](1) injection): 0.0 ± 0.0%; % of radioactivity (Eyes, 72 h after [125I](1) injection): 0.0 ± 0.0%; % of radioactivity (Eyes, 10 d after [125I](1) injection): 0.0 ± 0.0%; % of radioactivity (Tumour, 1 h after [125I](1) injection): 13.0 ± 1.4%; % of radioactivity (Tumour, 3 h after [125I](1) injection): 6.5 ± 0.7%; % of radioactivity (Tumour, 6 h after [125I](1) injection): 9.0 ± 0.0%; % of radioactivity (Tumour, 24 h after [125I](1) injection): 0.0 ± 0.0%; % of radioactivity (Tumour, 72 h after [125I](1) injection): 0.0 ± 0.0%; % of radioactivity (Tumour, 10 d after [125I](1) injection): 0.0 ± 0.0%
